The experiment has as its target T1, HCV polymerase (Hepatitis C virus genotype 1b, UniProt P26663).
T1 construct: a region encoding NS5B (J Virol 1991 March, 65(3), 1105-13, 544 amino acids after deletion of 47 amino acids on the C-terminal); 6xHis (C); made in house; host or cells: Escherichia coli
The experiment in a line: biochemical. The arrangement: species or system HCV BK strain. A digest of the protocol: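 Recombinant HCV BK-strain NS5B (C-terminal 47 aa deleted, His6-tagged, E. coli), 0.5 μg/ml, run with 5 μg/ml in vitro-transcribed RNA template (polyU/3′X), ATP/GTP/CTP 50 μM, UTP 2 μM plus [3H]UTP, pH 7.5, 25° C, 90 min. TCA-precipitated RNA counted by scintillation; IC50 from activity with vs without compound.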

Structures can show the parent of a compound that is named as a salt. Where two headings read alike, the source gives them in different places. Some results are limits rather than exact numbers.

T1 sequence (P26663 2420-2963): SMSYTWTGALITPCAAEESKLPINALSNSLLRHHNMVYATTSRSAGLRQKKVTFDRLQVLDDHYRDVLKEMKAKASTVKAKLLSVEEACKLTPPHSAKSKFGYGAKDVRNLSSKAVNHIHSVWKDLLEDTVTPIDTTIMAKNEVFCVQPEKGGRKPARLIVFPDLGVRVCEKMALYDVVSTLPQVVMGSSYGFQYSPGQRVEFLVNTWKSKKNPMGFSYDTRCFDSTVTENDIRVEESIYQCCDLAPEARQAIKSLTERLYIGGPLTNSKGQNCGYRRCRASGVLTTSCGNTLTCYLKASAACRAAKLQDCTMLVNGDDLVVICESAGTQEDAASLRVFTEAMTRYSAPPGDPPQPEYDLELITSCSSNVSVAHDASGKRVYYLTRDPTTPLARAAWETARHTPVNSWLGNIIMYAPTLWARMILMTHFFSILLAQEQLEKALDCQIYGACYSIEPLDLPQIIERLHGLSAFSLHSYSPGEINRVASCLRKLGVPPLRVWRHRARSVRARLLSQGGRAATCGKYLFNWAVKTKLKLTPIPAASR

As for `CCN1CCn2c(c(C3CCCCC3)c3ccc(C(=O)NC4(C(=O)Nc5ccc(/C=C/C(=O)O)cc5)CCC4)cc32)-c2ccc(OC)cc21` [Example 1-477, (E)-3-[4-({1-[(13-cyclohexyl-5-ethyl-3-methoxy-6,7-dihydro-5H-benzo[5,6][1,4]diazepino[7,1-a]indole-10-carbonyl)amino]cyclobutanecarbonyl}amino)phenyl]acrylic acid], the IC50 (commonly the midpoint of a concentration-inhibition curve) is below 100 nM.

`CCN(CCN1CCOCC1)c1cccc2c1OCCn1c-2c(C2CCCCC2)c2ccc(C(=O)O)cc21` [Example 2-170, 12-cyclohexyl-4-{N-ethyl-N-[2-(morpholin-4-yl)ethyl]amino}-6,7-dihydro-5-oxa-7a-azadibenzo[a,e]azulene-9-carboxylic acid dihydrochloride] gave a half-inhibitory concentration (IC50) below 100 nM.

On to `CCN(CC)CC(C)(C)CN1CCn2c(c(C3CCCCC3)c3ccc(C(=O)O)cc32)-c2ccc(Cl)cc21` [Example 1-436, 3-chloro-13-cyclohexyl-5-(3-diethylamino-2,2-dimethylpropyl)-6,7-dihydro-5H-benzo[5,6][1,4]diazepino[7,1-a]indole-10-carboxylic acid dihydrochloride], for which the IC50 was below 100 nM.

Turning to `COc1ccc2c(c1)OCCn1c-2c(C2CCCCC2)c2ccc(C(=O)NC(C)(C)c3ncc(-c4ccc(/C=C/C(=O)O)cc4)[nH]3)cc21` [Example 2-548, (E)-3-[4-(2-{1-[(12-cyclohexyl-3-methoxy-6,7-dihydro-5-oxa-7a-azadibenzo[a,e]azulene-9-carbonyl)amino]-1-methylethyl}-3H-imidazol-4-yl)phenyl]acrylic acid], the IC50 was below 100 nM.

Take `COc1ccc2c(c1)OCCn1c-2c(C2CCCCC2)c2ccc(C(=O)N[C@@H](Cc3c[nH]c4ccc(O)cc34)c3csc(C)n3)cc21` [Example 2-385, [(S)-2-(5-hydroxy-1H-indol-3-yl)-1-(2-methylthiazol-4-yl)ethyl]-12-cyclohexyl-3-methoxy-6,7-dihydro-5-oxa-7a-azadibenzo[a,e]azulene-9-carboxamide]: the IC50 (25° C., 90 min, [5,6-3H]UTP incorporation into RNA, read-out: HCV polymerase inhibitory activity IC50) is below 100 nM.

With `Cc1ccc2c(c1)N(CCCN1CCCC1)CCn1c-2c(C2CCCCC2)c2ccc(C(=O)O)cc21` [Example 1-299, 13-cyclohexyl-3-methyl-5-[3-(pyrrolidin-1-yl)propyl]-6,7-dihydro-5H-benzo[5,6][1,4]diazepino[7,1-a]indole-10-carboxylic acid dihydrochloride], the IC50 was below 100 nM.

In turn, `CN(C)C(=O)C1Cn2c(c(C3CCCCC3)c3ccc(C(=O)O)cc32)-c2ccccc2O1` (stereo not shown) [Example 3-4, 12-cyclohexyl-6-dimethylcarbamoyl-6,7-dihydro-5-oxa-7a-azadibenzo[a,e]azulene-9-carboxylic acid] registered an IC50 below 100 nM.

For the compound `CNC(=O)c1ccc2[nH]c(C(C)(C)NC(=O)c3ccc4c(C5CCCCC5)c5n(c4c3)CCOc3cc(OC)ccc3-5)nc2c1` [Example 2-396, N-[1-methyl-1-(5-methylcarbamoyl-1H-benzimidazol-2-yl)ethyl]-12-cyclohexyl-3-methoxy-6,7-dihydro-5-oxa-7a-azadibenzo[a,e]azulene-9-carboxamide], the IC50 was below 100 nM.

Turning to `O=C(O)c1ccc2c(C3CCCCC3)c3n(c2c1)CCN(CCN1CCCC1)c1cc(Cl)ccc1-3` [Example 1-216, 3-chloro-13-cyclohexyl-5-[2-(pyrrolidin-1-yl)ethyl]-6,7-dihydro-5H-benzo[5,6][1,4]diazepino[7,1-a]indole-10-carboxylic acid dihydrochloride], the IC50 was below 100 nM.

Take `CCOc1ccc2c(c1)N(CCN1CCC[C@@H](COC)C1)CCn1c-2c(C2CCCCC2)c2ccc(C(=O)O)cc21` [Example 1-499, 13-cyclohexyl-3-ethoxy-5-[2-((R)-3-methoxymethylpiperidin-1-yl)ethyl]-6,7-dihydro-5H-benzo[5,6][1,4]diazepino[7,1-a]indole-10-carboxylic acid dihydrochloride]: the IC50 was below 100 nM.

On to `CC(C)(NC(=O)c1ccc2c(C3CCCCC3)c3n(c2c1)CCOc1ccccc1-3)C(=O)Nc1ccc(O)cc1` [Example 2-202, N-[1-(4-hydroxyphenylcarbamoyl)-1-methylethyl]-12-cyclohexyl-6,7-dihydro-5-oxa-7a-azadibenzo[a,e]azulene-9-carboxamide], for which the IC50 is below 100 nM.

`Cc1ccc2c(c1)N(CCN1CCOCC1)CCn1c-2c(C2CCCCC2)c2ccc(C(=O)O)cc21` [Example 1-68, 13-cyclohexyl-3-methyl-5-[2-(morpholin-4-yl)ethyl]-6,7-dihydro-5H-benzo[5,6][1,4]diazepino[7,1-a]indole-10-carboxylic acid dihydrochloride] yielded an IC50 below 100 nM.

Take `COc1ccc2c(c1)OCCn1c-2c(C2CCCCC2)c2ccc(C(=O)N[C@@H](Cc3cccc(C(F)(F)F)c3)C(=O)O)cc21` [Example 2-354, (S)-2-[(12-cyclohexyl-3-methoxy-6,7-dihydro-5-oxa-7a-azadibenzo[a,e]azulene-9-carbonyl)amino]-3-(3-trifluoromethylphenyl)propionic acid]: the IC50 is below 100 nM.

In the case of `O=C(O)c1ccc2c(C3CCCCC3)c3n(c2c1)CCOc1c-3cccc1N1CCCCC1` [Example 2-345, 12-cyclohexyl-4-(piperidin-1-yl)-6,7-dihydro-5-oxa-7a-azadibenzo[a,e]azulene-9-carboxylic acid], the IC50 is below 100 nM.

Consider `CN1CCC(CCN2CCn3c(c(C4CCCCC4)c4ccc(C(=O)O)cc43)-c3ccc(Cl)cc32)CC1` [Example 1-246, 3-chloro-13-cyclohexyl-5-[2-(1-methylpiperidin-4-yl)ethyl]-6,7-dihydro-5H-benzo[5,6][1,4]diazepino[7,1-a]indole-10-carboxylic acid dihydrochloride], for which the IC50 was below 100 nM.

In the case of `Cc1ccc2c(c1)N(CCC13CCC(CC1)N3Cc1ccccc1)CCn1c-2c(C2CCCCC2)c2ccc(C(=O)O)cc21` [Example 1-487, 5-[2-(7-benzyl-7-azabicyclo[2.2.1]hept-1-yl)ethyl]-13-cyclohexyl-3-methyl-6,7-dihydro-5H-benzo[5,6][1,4]diazepino[7,1-a]indole-10-carboxylic acid], the IC50 was below 100 nM.

For `CC(C)(CN/C=C/C(=O)O)NC(=O)c1ccc2c(C3CCCCC3)c3n(c2c1)CCOc1ccccc1-3` [Example 2-254, (E)-3-{2-[(12-cyclohexyl-6,7-dihydro-5-oxa-7a-azadibenzo[a,e]azulene-9-carbonyl)amino]-2-methylpropylamino}acrylic acid], the IC50 was in the range of 100 to 1000 nM.

Compound `O=C(NCc1nc2ccccc2n1CCO)c1ccc2c(C3CCCCC3)c3n(c2c1)CCOc1ccccc1-3` [Example 2-288, N-[1-(2-hydroxyethyl)-1H-benzimidazol-2-ylmethyl]-12-cyclohexyl-6,7-dihydro-5-oxa-7a-azadibenzo[a,e]azulene-9-carboxamide] yielded an IC50 below 100 nM.

Compound `O=C(O)c1ccc2c(C3CCCCC3)c3n(c2c1)CCN(CCN1CCc2ccccc2C1)c1ccccc1-3` [Example 1-142, 13-cyclohexyl-5-[2-(3,4-dihydro-1H-isoquinolin-2-yl)ethyl]-6,7-dihydro-5H-benzo[5,6][1,4]diazepino[7,1-a]indole-10-carboxylic acid dihydrochloride] returned an IC50 below 100 nM.

The values above are taken from patent US20070049593A1 (priority 2004, published 2007).
